Experiments:
rats [1] = conditions: rat, in vivo
PKC = experiment: Cellular PKC activity in HepG2 cells (PepTag assay); format: cell-based, human
Protocol: To determine whether berberine directly activates PKC, pGL3-1.5kIRP transfected HepG2 cells were either not treated, treated with 0.2 μM of calphostin C, 5 μg/ml of berberine or 0.5 μM of PKC activator phorbol-12-myristate-13-acetate (PMA) (Gandino, Oncogene, 5(%), 721-725 (1990) or combinations thereof for eight hours. The activity of total PKC in the control and berberine treated cells was assessed by PKC activity assay.
Cellular PKC activity was analyzed using the PepTag® Assay for Non-Radioactive Detection of Protein Kinase-C or cAMP-Dependent Protein Kinase kit (Promega) according to the protocol. Briefly, after homogenization and partial purification, 10 μl of sample protein was mixed with 5 μl of PepTag® Cl peptide (specific substrate of PKC), 5 μl of reaction buffer and 5 μl of PKC activator solution in a 25 μl reaction system. The reactions were performed at 30° C. for 30 minutes. Then, the samples were loaded onto a 0.8% agarose gel. […] They were transferred to a 96-well plate and quantified using densitometry according to the supplier's protocol. The catalytic activity of total PKC of a specific sample was expressed as pmol/min/mg, representing the number of picomoles of phosphate transferred to the substrate per minute per milligram of proteins of the sample.

rat model subjects = experiment: Combinatorial anti-hyperlipidemia efficacy of berberine and lovastatin in rats (Table 9); format: in vivo
HMG-CoA reductase mRNA = HMG-CoA reductase mRNA stability in HepG2 cells; format: cell-based, human; conditions: HepG2, berberine 15 hours then actinomycin D
Protocol: HepG2 cells were cultured and then left alone or treated with berberine for 15 hours. After 15 hours, actinomycin D (5 μg/ml) was added to cells at 0, 20, 40, 60, 90, 120, or 150 minutes. Total mRNA was isolated and analyzed by Northern blot for the amount of LDLR mRNA. […] In contrast, the mRNA stability of HMG-CoA reductase was not altered by berberine.

rats [2] = experiment: Long term toxicity in rats; format: in vivo, rat; conditions: 300 mg/kg orally for 182 days
Protocol: For long term toxicity determination, rats were administered 300 mg/kg of berberine orally for 182 days.

in vivo = conditions: rabbit, 50 mg/kg
Protocol: 50 mg/kg of berberine was administered through stomach infusion to six rabbits. Serum samples were taken at various points after administration and RP-HPLC was used to measure the drug concentration.

PPAR-r mRNA = PPAR-r mRNA expression in liver cells; format: cell-based; conditions: liver cells (data not shown)
Excerpt: The effect of berberine on InsR was further confirmed in another hepatoma cell line, Bel-7402 […] (FIG. 18). […] The expression of PPAR-r mRNA in liver cells was not changed by berberine (data not shown).

LDLR = experiment: Hamster liver LDLR mRNA and protein expression (real-time RT-PCR, western blot); format: in vivo, Chinese hamster; conditions: 100 mg/kg/day of berberine, end of treatment
Protocol: Two weeks prior to treatment, female Chinese hamsters purchased from the National Institute of Vaccine and Serum research (Beijing, China) were switched to a high fat and cholesterol diet (10% lard, 10% egg yolk powder and 1% cholesterol). After two weeks, groups of 14 hamsters were given either 10 mg/kg/day of berberine through peritoneal injection, 20 mg/kg/day of berberine through peritoneal injection, 50 mg/kg/day, 100 mg/kg/day of berberine orally or saline for ten days. Serum cholesterol, triglyceride and LDL levels were measured after 4 h fasting before, during and after the course of the treatment. Four hours after the course of the treatment, the animals were sacrificed and their livers removed for analysis.
At the end of treatment, three animals from each group were killed and liver LDLR mRNA and protein expressions were examined by quantitative real-time RT-PCR and western blot analysis. For the real-time RT-PCR, reverse transcription with random primers using Superscript II at 42° C. for 30 minutes with 1 μg of total RNA was performed using the ABI Prism 7900-HT Sequence Detection System and Universal MasterMix (Applied Biosystems, Foster City, Calif.). LDLR and GAPD mRNA expression levels were determined using the human LDLR and GAPD Pre-developed TaqMan Assay Reagents (Applied Biosystems).

[3] = Toxicity analysis (LD50) in mice; conditions: mouse, in vivo
Protocol: Rats and mice were administered berberine through a variety of techniques, including orally, through subcutaneous injection, peritoneal injection and intravenous injection.

SREBP2 = experiment: Precursor and mature forms of SREBP2 in HepG2 cells (Western blot); format: cell-based, human; conditions: 8 hours
Excerpt: Total cell lysates from untreated cells or cells treated with either berberine or GW707 were then harvested and analyzed by Western blot.

[4] = high fat diet rats treated for 15 days, berberine 80 mg/kg/day, lovastatin 10 mg/kg/day
[5] = high fat diet rats, Day 0 (untreated rats, baseline)

## COc1ccc2cc3[n+](cc2c1OC)CCc1cc2c(cc1-3)OCO2 [berberine]
Rats [1]
  birth defects: No birth defects were evident
PKC; after berberine treatment
  time at which elevation of PKC activity was first observed: 0.5 h
PKC; time-dependent
  PKC activity in liver cells: increased
Rat model subjects; [4]
  Cholesterol Day 15: 2.75 mmol/L
  LDL Day 15: 1.7 mmol/L
Rat model subjects; [5]
  Cholesterol Day 0: 3.65 mmol/L
  LDL Day 0: 2.25 mmol/L
HMG-CoA reductase mRNA
  mRNA stability of HMG-CoA reductase: not altered
Rats [2]
  long term toxicity: blood tests, blood biochemistry, urine analysis, histopathology: No abnormalities were found
In vivo
  peak time Tpeak: 0.63 ± 0.25 h
In vivo; po
  AUC: 492 ± 296 ng·h/mL
  Cmax: 92.7 ± 50.9 ng/mL
  half-life: 3.11 ± 0.58 h
PPAR-r mRNA
  expression of PPAR-r mRNA: not changed
LDLR
  increase in LDLR mRNA in hamster livers: 3.5 fold
  increase in LDLR protein in hamster livers: 2.6 fold
[3]; intraperitoneal, peritoneal injection
  LD50: 30 to 32.2 mg/kg
[3]; intravenous injection
  LD50: 7.6 to 10.2 mg/kg
[3]; sc, subcutaneous injection
  LD50: 13.9 to 20 mg/kg
SREBP2
  amount of the mature form of SREB-2: no effect
